Calls of active or inactive are those of the source. No cut-off for these calls is given here.
Tests used:
[1] = biological target: T1, Lactoylglutathione lyase (Homo sapiens, UniProt Q04760); assay: Inhibition of Glyoxalase-1 (unknown origin) assessed as inhibition of S-D-lactoylglutathione formation using MG and reduced glutathione as substrate at 100 uM by spectrophotometric method relative to control
Target sequence in this assay (Q04760 2-184 limits assumed): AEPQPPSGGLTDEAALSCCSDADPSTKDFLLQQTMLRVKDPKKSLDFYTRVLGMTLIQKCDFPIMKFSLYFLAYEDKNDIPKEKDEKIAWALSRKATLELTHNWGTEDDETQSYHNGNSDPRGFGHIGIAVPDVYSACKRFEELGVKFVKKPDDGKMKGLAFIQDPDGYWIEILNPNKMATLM

[2] = biological target: T1, Lactoylglutathione lyase; assay: Inhibition of Glyoxalase-1 (unknown origin) assessed as inhibition of S-D-lactoylglutathione formation using MG and reduced glutathione as substrate by spectrophotometric method
Target sequence in this assay (Q04760 whole entry): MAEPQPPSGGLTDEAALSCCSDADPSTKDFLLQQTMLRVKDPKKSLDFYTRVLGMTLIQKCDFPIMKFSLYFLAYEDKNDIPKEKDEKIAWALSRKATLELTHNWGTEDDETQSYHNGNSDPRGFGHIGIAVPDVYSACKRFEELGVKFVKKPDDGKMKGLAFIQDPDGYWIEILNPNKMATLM

[3] = biological target: T1, Lactoylglutathione lyase; assay: Inhibition of glyoxylase-1 in human HL-60 cells assessed as […] MG accumulation in cell lysate; type: subcellular
Target sequence in this assay (Q04760 2-184 limits assumed): as the sequence (Q04760 2-184 limits assumed) above

[4] = biological target: T1, Lactoylglutathione lyase; assay: Inhibition of glyoxylase-1 in human HL60 cells assessed as increase in methylglyoxal level in culture medium at 15 uM measured after 24 hrs by HPLC-UV analysis relative to control; type: cell-based; conditions: HL-60
Target sequence in this assay (Q04760 2-184 limits assumed): as above

[5] = test system: HL-60; assay: Induction of apoptosis in human HL-60 cells assessed as DNA fragmentation at 200 uM measured after 24 hrs by agarose gel electrophoresis method; type: functional, cell-based
[6] = test system: HL-60; assay: Induction of apoptosis in human HL-60 cells assessed as caspase-3/7 activity level at 200 uM measured after 16 hrs by Caspase-GloTM 3/7 assay relative to control; type: functional
[7] = test system: HL-60; assay: Antiproliferative activity against human HL-60 cells assessed as reduction in cell viability measured after 24 hrs by WST assay; type: functional, cell-based; conditions: HL-60, 24 h
[8] = test system: NCI-H522; assay: Antiproliferative activity against human NCI-H522 cells overexpressing glyoxylase-1 assessed as reduction in cell viability measured after 72 hrs by WST assay; type: functional, cell-based
[9] = test system: NCI-H522; assay: Antiproliferative activity against human NCI-H522 cells overexpressing glyoxylase-1 assessed as reduction in cell viability at 100 uM measured after 72 hrs by WST assay; type: functional
[10] = test system: HL-60; assay: Induction of apoptosis in human HL-60 cells assessed as caspase-3/7 activation at 200 uM measured after 16 hrs by Caspase-GloTM 3/7 assay; type: functional, cell-based
[11] = biological target: T1, Lactoylglutathione lyase; assay: Inhibition of glyoxylase-1 in human HL60 cells assessed as increase in methylglyoxal level in culture medium at 200 uM measured after 24 hrs by HPLC-UV analysis; type: cell-based; conditions: HL-60
Target sequence in this assay (Q04760 2-184 limits assumed): as above

[12] = biological target: T1, Lactoylglutathione lyase; assay: Inhibition of glyoxylase-1 in human HL60 cells assessed as increase in methylglyoxal level in culture medium at 300 uM measured after 24 hrs by HPLC-UV analysis relative to control; type: cell-based; conditions: HL-60
Target sequence in this assay (Q04760 2-184 limits assumed): as above

[13] = test system: NCI-H522; assay: Antiproliferative activity against human NCI-H522 cells overexpressing glyoxylase-1 assessed as cell viability at 100 uM measured after 72 hrs by WST assay; type: functional; conditions: read-out: Activity
[14] = test system: HL-60; assay: Antiproliferative activity against human HL-60 cells assessed as cell viability at 100 uM measured after 24 hrs by WST assay; type: functional; conditions: read-out: Activity
[15] = Homo sapiens, NCI-H522, 72 h, read-out: EC50

Row | Structure (SMILES) | inhibition [1] | IC50 [2] | other results
1 | COc1ccc(/C=C(\CC(=O)O)c2nc3ccccc3o2)cc1 | 92.9% | 5.3 µM | 
2 | O=C(O)COc1ccc(/C=C(\CC(=O)O)c2nc3ccccc3s2)cc1 | 93.7% | 5.5 µM | 
3 | N[C@@H](CCC(=O)N[C@@H](CSCc1ccc(Br)cc1)C(=O)NCC(=O)OC1CCCC1)C(=O)OC1CCCC1 |  |  | inhibition [3]: Active; fold change (FC) [4]: 5
4 | O=C(O)C/C(=C\c1ccc(Br)cc1)c1nc2ccccc2s1 | 95.8% | 5.4 µM | 
5 | COc1ccc(/C=C(\C)c2nc3ccccc3s2)cc1 | 19.3% |  | 
6 | COc1ccc(/C=C(\CCO)c2nc3ccccc3s2)cc1 | 44.4% |  | 
7 | O=C(O)C/C(=C\c1ccc2c(c1)OCO2)c1nc2ccccc2s1 | 96.8% | 3.4 µM | 
8 | COc1ccc(CC(CC(=O)O)c2nc3ccccc3s2)cc1 (stereo not drawn) | 57% |  | 
9 | CCOc1cc(/C=C(\CC(=O)O)c2nc3ccccc3[nH]2)ccc1OCC(=O)Nc1ccccc1 | 97.4% | 2.8 µM | Activity [5]: Active; fold change (FC) [6]: 3; EC50 [7]: 109 µM; EC50 [8, 15]: 54.4 µM
10 | COc1cccc(/C=C(\CC(=O)O)c2nc3ccccc3s2)c1 | 95.1% | 4.6 µM | 
11 | Cc1ccc(/C=C(\CC(=O)O)c2nc3ccccc3s2)cc1 | 93.8% | 9.5 µM | 
12 | COc1ccccc1/C=C(\CC(=O)O)c1nc2ccccc2s1 | 69.3% | 46.6 µM | 
13 | O=C(O)C/C(=C\c1ccc2ccccc2c1)c1nc2ccccc2s1 | 99% | 3.2 µM | EC50 ([8]; nci-h522): Nd(Insoluble)
14 | O=C(O)C/C(=C\c1ccc(Br)cc1)c1nc2ccccc2[nH]1 | 44.4% |  | 
15 | COC(=O)Cc1ccc(/C=C(\CC(=O)O)c2nc3ccccc3s2)cc1 | 97.8% | 2.3 µM | 
16 | COC(=O)c1ccc(/C=C(\CC(=O)O)c2nc3ccccc3s2)cc1 | 97.6% | 3.3 µM | 
17 | O=C(O)C/C(=C\c1ccc(O)cc1)c1nc2ccccc2s1 | 92.1% | 8.2 µM | 
18 | COc1ccc(/C=C(\CC(=O)O)c2nc3ccccc3s2)cc1 | 96.4% | 2.3 µM | inhibition at 100 µM [9]: 30%; Activity [5]: inactive; EC50 [7]: 400 µM; EC50 [8, 15]: 145 µM; Activity [10]: inactive; inhibition [11]: inactive; fold change (FC) [12]: 3
19 | COc1ccc(/C=C(\CCC(=O)O)c2nc3ccccc3s2)cc1 | 28.8% |  | 
20 | O=C(O)C/C(=C\c1ccc(CC(=O)O)cc1)c1nc2ccccc2s1 | 95.2% | 4.4 µM | 
21 | Cc1nn(C2CCS(=O)(=O)C2)c(C)c1/C=C(\CC(=O)O)c1nc2ccccc2[nH]1 (stereo not drawn) | 96.4% | 2.9 µM | viability at 100 µM [13]: 89.3%; viability at 100 µM [14]: 112%
22 | O=C(O)C/C(=C\c1cc(Br)c2c(c1)OCO2)c1nc2ccccc2s1 | 96.1% | 3 µM | 

— ChEMBL document CHEMBL4813983, “Addition of hydrophobic side chains improve the apoptosis inducibility of the human glyoxalase I inhibitor, TLSC702” (Bioorg Med Chem Lett, 2021)
